Results on four compounds are retold here after US20210041466A1, “DIAGNOSTIC METHODS AND KITS” (Cholestenix Limited, priority 2015, published 2021).

The subject of one assay is Smoothened (Smo). Particulars: from the literature (Myers Dev Cell 2013; Corcoran PNAS 2006; Nachtergaele Nat Chem Bio 2012); cited from earlier work.
For assay [1], the system named is Hedgehog signalling (Gli1 mRNA). Description: Hedgehog signalling assay using quantitative RT-PCR (Gli1 mRNA in NIH/3T3 cells). It counts as cell-based. Particulars: sterol treatment ~16 hours, different concentrations (FIG. 6, 7). On the procedure: NIH/3T3 cells were grown to confluency in Dulbecco's Modified Eagle's Medium (DMEM) containing 10% Fetal Bovine Serum (FBS, Optima Grade, Atlanta Biologicals). Confluent cells were exchanged into 0.5% FBS DMEM for 24 hours to allow ciliogenesis prior to treatment with sterols in DMEM containing 0.5% FBS for ˜16 hours. SHH protein carrying a C-terminal hexa-histidine tag was expressed in bacteria and purified as described previously [Bishop Nat Struct Mol Biol 2009]. The mRNA levels of Gli1, a direct Hh target gene commonly used as a metric for signalling strength, were measured using the Power SYBR Green Cells-To-CT kit (Thermo Fisher Scientific). The primers used are Gli1 (forward primer: 5′-[…]-3′ and reverse primer: 5′-[…]-3′), Gapdh (forward primer: 5′-[…]-3′ and reverse primer: 5′-[…]-3′). Transcript levels relative to Gapdh were calculated using the Δelta-Ct method. Each qRT-PCR experiment, which was repeated twice, included two biological replicates, each with two technical replicates.

Consider `CC(C)CCC[C@](C)(O)[C@H]1CC[C@H]2[C@@H]3CC=C4C[C@@H](O)CC[C@]4(C)[C@H]3CC[C@@]21C` [20S-Hydroxycholesterol, reference compound], for which the “activation of Smo” value in the assay on Smoothened (Smo) is on record as “activate Smo in vitro”.

Turning to `C[C@@H](CO)CCC[C@@H](C)[C@H]1CC[C@H]2[C@@H]3C(=O)C=C4C[C@@H](O)CC[C@]4(C)[C@H]3CC[C@]12C` [Compound XX, 3β,26-Dihydroxycholest-5-en-7-one], in assay [1], the “effect on Hedgehog signalling (mRNA levels of Gli1)” value is “activator of Hedgehog signalling”. Besides, in the assay with Smoothened (Smo), the “activation of Smo” value is listed as “activators of Smo”.

Turning to `C[C@H](CCC(=O)O)[C@H]1CC[C@H]2[C@@H]3C(=O)C=C4C[C@@H](O)CC[C@]4(C)[C@H]3CC[C@]12C` [Compound XXI, 3β-Hydroxy-7-oxochol-5-en-24-oic acid], the “effect on Hedgehog signalling (mRNA levels of Gli1)” value in assay [1] is recorded as “inhibitor of Hedgehog signalling”.

Turning to `C[C@H](CCCC(C)(C)O)[C@H]1CC[C@H]2[C@@H]3C(=O)C=C4C[C@@H](O)CC[C@]4(C)[C@H]3CC[C@]12C` [Compound XXII, 3β,25-dihydroxycholest-5-en-7-one], the “activation of Smo” value with Smoothened (Smo) is reported as “activators of Smo”.
